Assay results taken from ChEMBL document CHEMBL4152303, “Structure-activity relationships of imidazothiazinones and analogs as antagonists of the cannabinoid-activated orphan G protein-coupled receptor GPR18” (Eur J Med Chem, 2018).

Experiments:
[1] = molecular target: T1, G-protein coupled receptor 55 (Homo sapiens, UniProt Q9Y2T6); assay: Agonist activity at recombinant human GPR55 expressed in CHO cells assessed as increase in beta-arrestin recruitment incubated for 60 mins measured for 1 sec by luminescence assay; format: functional, cell-based
[2] = molecular target: T2, N-arachidonyl glycine receptor (Homo sapiens, UniProt Q14330); assay: (§1) Agonist activity at recombinant human GPR18 expressed in CHO cells assessed as increase in beta-arrestin recruitment incubated for 60 mins measured for 1 sec by luminescence assay; format: functional, cell-based
T2 sequence (Q14330 whole entry): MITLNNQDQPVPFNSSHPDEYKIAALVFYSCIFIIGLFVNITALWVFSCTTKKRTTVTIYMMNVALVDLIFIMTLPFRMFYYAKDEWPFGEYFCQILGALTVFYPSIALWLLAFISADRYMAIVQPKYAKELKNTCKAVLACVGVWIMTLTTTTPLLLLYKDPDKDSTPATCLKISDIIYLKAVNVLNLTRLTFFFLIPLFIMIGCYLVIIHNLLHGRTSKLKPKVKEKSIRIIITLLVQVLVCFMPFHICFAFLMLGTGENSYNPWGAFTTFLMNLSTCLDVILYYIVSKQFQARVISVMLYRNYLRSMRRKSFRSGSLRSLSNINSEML

[3] = molecular target: T3, N-arachidonyl glycine receptor (Homo sapiens) (UniProt Q14330); assay: as §1; format: functional, cell-based
T3 sequence (whole entry): T2 sequence (Q14330 whole entry)

Cannabinoid receptor 1 = Cannabinoid receptor 1 (Homo sapiens, UniProt P21554); assay: Displacement of [3H]CP55940 from recombinant human CB1 receptor expressed in CHO cell membranes after 2 hrs by liquid scintillation counting method; settings: for inhibition: concentration not given here
Cannabinoid receptor 2 = Cannabinoid receptor 2 (Homo sapiens, UniProt P34972); assay: Displacement of [3H]CP55940 from recombinant human CB2 receptor expressed in CHO cell membranes after 2 hrs by liquid scintillation counting method; settings: for inhibition: concentration not given here
[4] = molecular target: T1, G-protein coupled receptor 55; assay: Antagonist activity at recombinant human GPR55 expressed in CHO cells assessed as inhibition of lysophosphatidylinositol-induced beta-arrestin recruitment preincubated for 60 mins followed by lysophosphatidylinositol addition for 90 mins measured for 1 sec by luminescence assay; format: functional, cell-based
[5] = molecular target: T2, N-arachidonyl glycine receptor; assay: (§2) Antagonist activity at recombinant human GPR18 expressed in CHO cells assessed as inhibition of delta9-THC-induced beta-arrestin recruitment preincubated for 60 mins followed by delta9-THC addition for 90 mins measured for 1 sec by luminescence assay; format: functional, cell-based
[6] = molecular target: T3, N-arachidonyl glycine receptor (Homo sapiens); assay: as §2; format: functional, cell-based
[7] = molecular target: T3, N-arachidonyl glycine receptor (Homo sapiens); assay: Competitive antagonist activity at recombinant human GPR18 expressed in CHO cells assessed as inhibition of delta9-THC-induced beta-arrestin recruitment preincubated for 60 mins followed by delta9-THC addition for 90 mins measured for 1 sec by luminescence assay; format: functional, cell-based
[8] = molecular target: T2, N-arachidonyl glycine receptor; assay: Agonist activity at recombinant full length human GPR18 expressed in CHO cells assessed as forskolin-stimulated cAMP accumulation after 10 mins by enzyme immunoassay; format: functional, cell-based
[9] = molecular target: T2, N-arachidonyl glycine receptor; assay: Agonist activity at recombinant human GPR18 expressed in HEK293 cells assessed as induction of p44/42 MAPK phosphorylation after 5 mins by Western blot analysis; format: functional, cell-based

Cannabinoid receptor 1, sequence (P21554 whole entry): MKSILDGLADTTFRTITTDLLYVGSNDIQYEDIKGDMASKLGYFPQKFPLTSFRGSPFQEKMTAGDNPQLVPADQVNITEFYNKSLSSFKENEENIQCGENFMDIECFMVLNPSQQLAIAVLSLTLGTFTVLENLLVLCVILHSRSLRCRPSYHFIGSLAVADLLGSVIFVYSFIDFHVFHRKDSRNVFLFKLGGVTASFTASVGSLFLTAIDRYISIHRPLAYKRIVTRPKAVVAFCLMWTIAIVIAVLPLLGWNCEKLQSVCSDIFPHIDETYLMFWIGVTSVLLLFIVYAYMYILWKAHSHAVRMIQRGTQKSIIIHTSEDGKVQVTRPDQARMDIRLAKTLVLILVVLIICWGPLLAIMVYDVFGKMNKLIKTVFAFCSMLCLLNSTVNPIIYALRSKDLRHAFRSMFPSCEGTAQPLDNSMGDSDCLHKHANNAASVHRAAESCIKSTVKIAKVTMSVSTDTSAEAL
Cannabinoid receptor 2, sequence (P34972 whole entry): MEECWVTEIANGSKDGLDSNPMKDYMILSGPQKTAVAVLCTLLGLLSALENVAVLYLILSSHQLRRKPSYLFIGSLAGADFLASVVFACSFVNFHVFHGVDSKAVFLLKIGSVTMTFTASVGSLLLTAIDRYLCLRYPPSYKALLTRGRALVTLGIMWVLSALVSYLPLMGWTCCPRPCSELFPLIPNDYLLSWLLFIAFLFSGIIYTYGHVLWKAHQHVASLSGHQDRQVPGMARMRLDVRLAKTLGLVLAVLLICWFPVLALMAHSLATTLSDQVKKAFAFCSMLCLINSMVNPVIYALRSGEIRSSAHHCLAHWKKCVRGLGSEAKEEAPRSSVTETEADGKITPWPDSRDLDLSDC
T1 sequence (Q9Y2T6 whole entry): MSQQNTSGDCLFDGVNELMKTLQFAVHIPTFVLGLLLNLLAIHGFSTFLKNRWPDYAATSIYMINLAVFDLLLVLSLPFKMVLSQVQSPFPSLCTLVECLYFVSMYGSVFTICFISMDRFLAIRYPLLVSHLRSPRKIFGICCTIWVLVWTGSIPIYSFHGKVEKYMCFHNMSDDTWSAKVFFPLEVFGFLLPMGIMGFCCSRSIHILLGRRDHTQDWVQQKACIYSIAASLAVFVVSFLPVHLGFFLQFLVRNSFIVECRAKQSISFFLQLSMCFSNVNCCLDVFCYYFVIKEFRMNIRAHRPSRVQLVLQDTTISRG

`O=C1/C(=C/c2cccc(OCCCCCCOc3ccc(Cl)cc3)c2)N=C2SCCCN12` was tested, and the %max [1] was -15%, the EC50 [1] was greater than 10 µM and the EC50 [2] was greater than 10 µM. It also gave a %max [3] of -37%, a Ki (Cannabinoid receptor 1) greater than 10 µM and a Ki (Cannabinoid receptor 2) greater than 10 µM. It also gave an inhibition (Cannabinoid receptor 2) of 12%, an IC50 [4] greater than 10 µM and an Imax [4] of 37%. For the same molecule, the IC50 [5] was 0.65 µM, the Imax [6] was 122% and the Kb [7] was 0.626 µM. For the same molecule, the pKb [7] was 6.2.
`Cc1ccc(COc2cccc(/C=C3\N=C4SCCCN4C3=O)c2)cc1` was tested, and the %max [1] was -31%, the EC50 [1] was greater than 10 µM and the EC50 [2] was greater than 10 µM. For the same molecule, the %max [3] was 2%, the Ki (Cannabinoid receptor 1) was greater than 10 µM and the inhibition (Cannabinoid receptor 1) was 22%. For the same molecule, the Ki (Cannabinoid receptor 2) was greater than 10 µM, the inhibition (Cannabinoid receptor 2) was 25% and the IC50 [4] was 9.45 µM. For the same molecule, the Imax [4] was 134%, the IC50 [5] was 3.59 µM and the Imax [6] was 61%.
`CSC1=NC(=O)/C(=C/c2cccc(OCc3ccc(Cl)cc3)c2)N1` showed a %max [1] of 18%, an EC50 [1] greater than 10 µM and an EC50 [2] greater than 10 µM. For the same molecule, the %max [3] was 31%, the Ki (Cannabinoid receptor 1) was 2.21 µM and the Imax (Cannabinoid receptor 2) was 73%. It also gave a Ki (Cannabinoid receptor 2) of 0.591 µM, an IC50 [4] greater than 10 µM and an Imax [4] of 47%. For the same molecule, the IC50 [5] was 13.8 µM and the Imax [6] was 71%.
In the case of `O=C1NC(SCc2ccccc2)=N/C1=C\c1cccc(OCc2ccc(Cl)cc2)c1`, the %max [1] is reported as 21%, the EC50 [1] is reported as greater than 10 µM and the EC50 [2] is reported as greater than 10 µM. For the same molecule, the %max [3] was -17%, the Ki (Cannabinoid receptor 1) was greater than 10 µM and the inhibition (Cannabinoid receptor 1) was 11%. For the same molecule, the Ki (Cannabinoid receptor 2) was greater than 10 µM, the inhibition (Cannabinoid receptor 2) was 46% and the IC50 [4] was greater than 10 µM. It also gave an Imax [4] of 17%, an IC50 [5] greater than 10 µM and an Imax [6] of 3%.
Work on `O=C1/C(=C/c2cccc(OCc3ccc(Br)cc3)c2)N=C2SCCCN12` yielded a %max [1] of -19%, an EC50 [1] greater than 10 µM and an EC50 [2] greater than 10 µM. It also gave a %max [3] of -9%, a Ki (Cannabinoid receptor 1) greater than 10 µM and an inhibition (Cannabinoid receptor 1) of 4%. For the same molecule, the Ki (Cannabinoid receptor 2) was greater than 10 µM, the inhibition (Cannabinoid receptor 2) was 4% and the IC50 [4] was 45.8 µM. The Imax [4] was 116%, the IC50 [5] was 1.73 µM and the Imax [6] was 74%.
For `O=C1/C(=C/c2cccc(OCCCCCCCCOc3ccc(Cl)cc3)c2)N=C2SCCCN12`, the %max [1] was -18%, the EC50 [1] was greater than 10 µM and the EC50 [2] was greater than 10 µM. It also gave a %max [3] of -25%, a Ki (Cannabinoid receptor 1) greater than 10 µM and an inhibition (Cannabinoid receptor 1) of -9%. It also gave a Ki (Cannabinoid receptor 2) greater than 10 µM, an inhibition (Cannabinoid receptor 2) of -3% and an IC50 [4] greater than 10 µM. For the same molecule, the Imax [4] was 43%, the IC50 [5] was 1.15 µM and the Imax [6] was 124%.
`O=C1NC(SCc2ccc(Br)cc2)=N/C1=C\c1cccc(OCc2ccc(Cl)cc2)c1` showed a %max [1] of 13%, an EC50 [1] greater than 10 µM and an EC50 [2] greater than 10 µM. It also gave a %max [3] of -11%, a Ki (Cannabinoid receptor 1) greater than 10 µM and an inhibition (Cannabinoid receptor 1) of 31%. It also gave a Ki (Cannabinoid receptor 2) greater than 10 µM, an inhibition (Cannabinoid receptor 2) of 36% and an IC50 [4] greater than 10 µM. The Imax [4] was 36%, the IC50 [5] was 2.29 µM and the Imax [6] was 44%.
In the case of `O=C1/C(=C/c2cccc(OCCCCCCCOc3ccc(Cl)cc3)c2)N=C2SCCCN12`, the %max [1] is reported as 34%, the EC50 [1] is reported as greater than 10 µM and the EC50 [2] is reported as greater than 10 µM. It also gave a %max [3] of 3%, a Ki (Cannabinoid receptor 1) greater than 10 µM and an inhibition (Cannabinoid receptor 1) of 46%. The Ki (Cannabinoid receptor 2) was greater than 10 µM, the inhibition (Cannabinoid receptor 2) was 15% and the IC50 [4] was greater than 10 µM. The Imax [4] was 16%, the IC50 [5] was 1.71 µM and the Imax [6] was 97%.
Molecule `O=C1/C(=C/c2cccc(OCCOc3ccc(Cl)cc3)c2)N=C2SCCCN12` has a %max [1] of -20%, an EC50 [1] greater than 10 µM and an EC50 [2] greater than 10 µM. For the same molecule, the %max [3] was -10%, the Ki (Cannabinoid receptor 1) was greater than 10 µM and the inhibition (Cannabinoid receptor 1) was 21%. The Ki (Cannabinoid receptor 2) was greater than 10 µM, the inhibition (Cannabinoid receptor 2) was -9% and the IC50 [4] was 10.1 µM. It also gave an Imax [4] of 99%, an IC50 [5] of 5 µM and an Imax [6] of 123%.
`Cc1cccc(C)c1OCCCCCCOc1cccc(/C=C2\N=C3SCCCN3C2=O)c1` gave a %max [1] of 33%, an EC50 [1] greater than 10 µM and an EC50 [2] greater than 10 µM. It also gave a %max [3] of 3%, a Ki (Cannabinoid receptor 1) greater than 10 µM and an inhibition (Cannabinoid receptor 1) of 13%. For the same molecule, the Ki (Cannabinoid receptor 2) was greater than 10 µM, the inhibition (Cannabinoid receptor 2) was 46% and the IC50 [4] was greater than 10 µM. The Imax [4] was 32%, the IC50 [5] was 10 µM and the inhibition [6] was 55%.
`CCc1ccc(OCCCCCCOc2cccc(/C=C3\N=C4SCCCN4C3=O)c2)cc1` gave a %max [1] of 47%, an EC50 [1] greater than 10 µM and an EC50 [2] greater than 10 µM. For the same molecule, the %max [3] was 0%, the Ki (Cannabinoid receptor 1) was greater than 10 µM and the inhibition (Cannabinoid receptor 1) was 13%. For the same molecule, the Ki (Cannabinoid receptor 2) was greater than 10 µM, the inhibition (Cannabinoid receptor 2) was 13% and the IC50 [4] was greater than 10 µM. The Imax [4] was 37%, the IC50 [5] was 25 µM and the Imax [6] was 99%.
With `O=C1N=C2SCCN2/C1=C\c1cccc(OCc2ccc(Cl)cc2)c1` the %max [1] was 2%, the EC50 [1] was greater than 10 µM and the EC50 [2] was greater than 10 µM. The %max [3] was 13%, the Imax (Cannabinoid receptor 1) was 60% and the Ki (Cannabinoid receptor 1) was 1.67 µM. The Ki (Cannabinoid receptor 2) was greater than 10 µM, the inhibition (Cannabinoid receptor 2) was 41% and the IC50 [4] was greater than 10 µM. It also gave an Imax [4] of 19%, an IC50 [5] greater than 10 µM and an Imax [6] of 25%.
`Cc1ccc(OCCCCCCOc2cccc(/C=C3\N=C4SCCCN4C3=O)c2)cc1` was tested, and the %max [1] was 35%, the EC50 [1] was greater than 10 µM and the EC50 [2] was greater than 10 µM. The %max [3] was -12%, the Ki (Cannabinoid receptor 1) was greater than 10 µM and the inhibition (Cannabinoid receptor 1) was 9%. For the same molecule, the Ki (Cannabinoid receptor 2) was greater than 10 µM, the inhibition (Cannabinoid receptor 2) was 12% and the IC50 [4] was 2.91 µM. The Imax [4] was 86%, the IC50 [5] was 0.238 µM and the Imax [6] was 81%.
Molecule `CCCCC/C=C\C/C=C\C/C=C\C/C=C\CCCC(=O)NCC(=O)O` [ARACHIDONOYL GLYCINE] has an EC50 [8] of 0.02 µM and an EC50 [9] of 0.044 µM.
